One test concerns herring sperm DNA. The test is described as follows: Fluorescence quenching of compound by DNA (Stern-Volmer, binding constant, thermodynamics). The following applies: 7f quenched by DNA. The text has this:
The Stern–Volmer equation is the following: F0/F = 1+ KSVc = 1+ […] where F0 and F are the ﬂuorescence intensities in the absence and presence of quencher (DNA for compound 7f or compound 7f for DNA-EB, respectively), KSV is the Stern-Volmer quenching constant, [c] is the concentration of DNA (or compound 7f), Kq is the biomolecule quenching rate constant and Kq = KSV/τ0. τ0 is the average lifetime of the molecule without any quencher and the ﬂuorescence lifetime of the biopolymer is 10^−8 s. The Stern–Volmer plots of F0/F versus [c] at the three temperatures were shown in Figure 9 and Figure 10, and the calculated KSV and Kq values were presented in Table 2 and Table 3.
When small molecules bind independently to a set of equivalent sites in a macromolecule, the binding constant (Kb) can be determined by the following equation [40, 52]: log[1/c] = log [F/(F0 − F)] + logKb(3) where Kb denotes the binding constant for interaction of naphthalimide–DNA, and F0, F, [c] have the same meanings as in Equation (2).
There are several acting forces between a small organic molecule and biomacromolecules, such as hydrophobic force, hydrogen bond, van der Waals force, electrostatic interactions, etc.
Preparation of sample is the same as that of UV-Vis measurement. Fluorescence wavelengths and intensity areas of samples were measured at following conditions: EX = 345 nm, EM = 355~600 nm temperature: 298, 303 and 310 K.

Test [1] concerns HepG2 cells. Description: Cell cycle analysis by High Content Screening (PI staining). The test is classed as cell-based. The following applies: HepG2, 20 μM, 48 h. On the procedure:
To reveal the cytotoxic mechanism of compound 7f, we ﬁrst examined its effects on the cell cycle perturbation. The DNA content analysis by High Content Screening (HCS) confirmed that 7f could induce HepG2 cell cycle perturbation (Figure 3).
Exponentially growing HepG2 cells were seeded in 96 well plates ([…]), cultured for 24 h and then treated with different concentrations of compound 7f for 48 h. After incubation for 48 h, cells were washed twice with ice-cold 10% PBS, fixed and permeabilized with ice-cold 70% ethanol at −20 °C overnight. The cells were treated with 50 μg/mL RNase A at room temperature for 30 min after washed with ice-cold PBS, and finally stained with 50 μg/mL propidium iodide (PI) in the dark at 4 °C for 30 min. The distribution of cell cycle phases with different DNA contents was read in image analysis system of high content screening living cells.

Test [2] has as its system HepG2 cells. Description: Apoptosis by Hoechst 33342 staining, laser scanning confocal microscope. The test is classed as cell-based. The following applies: HepG2, 20 μM, 48 h, 200 cells counted; control less than five percent. The source says: Apoptosis, or namely programmed cell death, can be triggered by several stimuli. Both naphthalimides and polyamine derivatives could trigger cell apoptosis. In order to determine whether the antitumor-proliferative effect of compound 7f was associated with cell apoptosis, the HepG2 cell apoptosis was detected by the staining of DNA with Hoechst 33342, and the apoptotic cells were counted by selecting 200 cells randomly (Figure 4). The apoptotic bodies were observed clearly in 7f-treated groups by laser scanning confocal microscope. 7f could trigger apoptosis in a dose-dependent manner with the 47.0% apoptotic ratio of 7f at 20 μM compared with the less than five percent in the control group. Exponentially growing HepG2 cells were seeded in 96 well plates (6 × 10^4 cells/well) and treated with indicated concentrations of 7f. After incubated for 48 h, cells were washed three times with PBS, and finally stained with 10 μM Hoechst 33342 in the dark at 37 °C for 20 min. They were detected by laser scanning confocal microscope and the apoptotic cells were count by selecting 200 cells randomly.

The subject of test [3] is human normal hepatocyte QSG-7701. Description: MTT assay, QSG-7701 cells. The test is classed as cell-based. The following applies: QSG7701, aminoguanidine present, mean ± SD of three determinations, max 50 µM tested. On the procedure:
(§1) The cytotoxicities of the novel conjugates were assessed in vitro by the MTT assay in the presence of aminoguanidine (an inhibitor of amine oxidase) against three cell lines, human leukemia K562, cancer of colon HCT116 and human normal hepatocyte QSG-7701 [34]. […] Thus, compound 7f was selected for further investigation. Cell lines, K562, 7721 and HCT116 were obtained from American Type Culture Collection (ATCC, Shanghai, China). Cells were cultured in RPMI1640, supplemented with 10% heat-inactivated fetal calf serum (FCS), antibiotics (penicillin, 100 units/mL; streptomycin sulfate, 100 μg/mL) at 37 °C, in an atmosphere of 95% air and 5% CO2 under humidified conditions. Aminoguanidine (1 mM) was added as an inhibitor of amine oxidase derived from FCS and had no effect on the various parameters of the cell measured in this study. In addition, exponentially growing HCT116 or 7721 cells were seeded into 96-well plates at 5000 cells/well and allowed to attach overnight, and then 100 μL of MTT (1 mg/mL) was added. After incubation for 4 h at 37 °C, the MTT solution was removed and the remaining formazan crystals were dissolved with 150 μL DMSO in each well. The absorbance of each well was then read at 570 nm.

The next test concerns human leukemia K562. Description: MTT assay, K562 cells. The test is classed as cell-based. The following applies: 48 h, aminoguanidine present, mean ± SD of three determinations, max 50 µM tested. Here is the method: as §1, with “Chemosensitivity” for “In addition, exponentially growing HCT116 or 7721 cells were seeded into 96-well plates at 5000 cells/well and allowed to attach overnight, and then 100 μL of MTT (1 mg/mL)”, “assessed using the 3-(4,5-dimethylthiazol-2-yl)-2,5-diphenyltetrazolium bromide (MTT) assay. […]” for “added.”, “purple” for “MTT solution was removed and the remaining”, “crystals (i.e., a reduced form of MTT) generated from viable cells” for “crystals”, “by adding 100” for “with 150”, “10% sodium dodecyl sulphate (SDS)” for “DMSO”
A general note: Tetrazolium assays rely on reduction of a dye to a coloured formazan, in cell work by metabolically active cells.

A further test concerns cancer of colon HCT116. Description: MTT assay, HCT116 cells. In kind it is cell-based. The following applies: Homo sapiens, HCT-116, aminoguanidine present, mean ± SD of three determinations, max 50 µM tested. Here is the method:
as §1

Structures are written as SMILES.

Take `Cl.Cl.NCCCCNCCCN1C(=O)c2cccc3cccc(c23)C1=O` [Compound 7f, 2-[3-(4-Aminobutylamino)propyl]1H-benz-[de]isoquinoline-1,3(2H)-dione dihydrochloride]: the figures for the “KSV (Stern-Volmer quenching constant)” value with herring sperm DNA (298 K), with herring sperm DNA (303 K) and with herring sperm DNA (310 K) were 5567 L/mol, 4789 L/mol and 3651 L/mol, respectively. Further, in the test with HepG2 cells [1], the “cells in G2/M phase” value is given as 49.8%. For the same compound, the “cells in G0/G1 phase” value with HepG2 cells [1] (control 52.6%) came out at 29.7%. Further, the apoptotic ratio in the test with HepG2 cells [2] is given as 47.0%. Moreover, the IC50 came to 19.7 ± 3.42 µM in test [3], 18.9 ± 1.97 µM with human leukemia K562 and 5.45 ± 1.71 µM in the test with cancer of colon HCT116.

Usually IC50 stands for the midpoint of a concentration-inhibition curve.
